Measured values reported in PubChem BioAssay (NCI).
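Briefly, cells in 96-well plates were exposed to five compound concentrations for 48 h, and endpoints were estimated by linear interpolation. At the TGI there is no net growth.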

Experiments:
Experiment in all cases: NCI anticancer screen, dose series, 48 h
[1] = test system: HT29 colon
[2] = test system: NCI-H460 lung
[3] = test system: TK-10 renal
[4] = test system: UACC-62 melanoma
[5] = test system: UO-31 renal
[6] = test system: MDA-MB-231 breast
[7] = test system: ACHN renal
[8] = test system: MALME-3M melanoma
[9] = test system: SF-539 CNS
[10] = test system: SK-MEL-28 melanoma
[11] = test system: COLO 205 colon
[12] = test system: HS 578T breast

| SMILES | TGI [1] [µM] | TGI [2] [µM] | TGI [3] [µM] | TGI [4] [µM] | TGI [5] [µM] | TGI [6] [µM] | TGI [7] [µM] | TGI [8] [µM] | TGI [9] [µM] | TGI [10] [µM] | TGI [11] [µM] | TGI [12] [µM] |
| --- | --- | --- | --- | --- | --- | --- | --- | --- | --- | --- | --- | --- |
| C=CCn1c(=O)c2ccccc2[n+]2c(-c3cccc([N+](=O)[O-])c3)csc12 | > 100 | > 100 | > 100 | > 100 | > 100 | > 100 | > 100 | > 100 | > 100 | > 100 | 98.6 | > 100 |
| CN(C)C=Nc1nncc2n[nH]nc12 | > 100 | > 100 | > 100 | > 100 | > 100 | > 100 | > 100 | – | > 100 | > 100 | > 100 | > 100 |
| Cc1cccc2c1C(=O)[C@@](C)([C@]1(C)Nc3cccc(C)c3C1=O)N2 | > 100 | > 100 | – | > 100 | > 100 | > 100 | > 100 | > 100 | > 100 | > 100 | > 100 | > 100 |
| CCC1CCC2c3c([nH]c4ccccc34)C3C(=O)N(c4ccc(OC)cc4)C(=O)C3C2C1 (stereo not drawn) | > 100 | > 100 | 85.8 | > 100 | > 100 | > 100 | > 100 | – | > 100 | > 100 | > 100 | 66.8 |
| COc1ccc(C(C)NNC(=O)c2ccncc2)cc1F (stereo not drawn) | > 100 | > 100 | > 100 | > 100 | > 100 | > 100 | > 100 | > 100 | > 100 | > 100 | > 100 | > 100 |
| O=S(=O)(/N=C1/SC(=Nc2ccccc2)N(c2ccccc2)/C1=N/S(=O)(=O)c1ccccc1)c1ccccc1 | 48.1 | 51.6 | 91.8 | 31.9 | 39.9 | 35.6 | 68.7 | 68.6 | – | 34 | 64.1 | > 100 |
| Cc1nnc2sc(-c3ccc([N+](=O)[O-])o3)nn12 | 34.7 | 49.4 | 28.6 | 22.1 | 32.6 | 29.2 | 23.2 | 14.3 | 18.2 | – | 27.5 | > 100 |
| COc1ccc(N2C(=O)/C(=C/c3ccc(N(CCC#N)CCC#N)cc3)N=C2c2ccccc2)c(OC)c1 | > 100 | > 100 | > 100 | > 100 | > 100 | > 100 | > 100 | > 100 | > 100 | > 100 | > 100 | > 100 |
| CCOC(=O)c1cn(C)nc1N/C(C)=C\C(=O)c1ccccc1 | > 100 | > 100 | > 100 | > 100 | > 100 | > 100 | > 100 | > 100 | > 100 | > 100 | > 100 | > 100 |
| COC1=CC(=O)c2c(cc(COP(=O)(N(C)CCBr)N(C)CCBr)n2C)C1=O | 1.42 | 9.44 | 2.01 | 2.26 | 2.52 | 15.3 | 0.492 | 2.95 | 0.339 | 3.51 | 2.56 | 5.04 |
| Cc1ccc2c(=O)c(C(=O)N(CCO)CCO)c[nH]c2n1 | > 100 | > 100 | > 100 | > 100 | > 100 | > 100 | > 100 | > 100 | – | > 100 | > 100 | > 100 |
| Nc1ccc(-c2nc3ccccc3s2)cc1 | 40.1 | 43.1 | 42.3 | 38.6 | 28.9 | 31.9 | 31.8 | 45 | 45.1 | 33 | 45.2 | > 84 |
| Cc1nn(-c2ccccn2)c2c1C(SC#N)=C(C=O)CC2 | 47 | 34.9 | 6.03 | 18.3 | 29.1 | 31.9 | 29.8 | 36.2 | 36.1 | 45.9 | 22.2 | > 100 |
| C=C1C(=O)O[C@H]2C/C(C=O)=C\[C@H]3O[C@H]3/C(COC(=O)C(C)C)=C/CC12 (stereo partly drawn) | 12.8 | 26.8 | 25.7 | 5.42 | 18 | 17.3 | 6.59 | 24.2 | 47.3 | 14.8 | 5.91 | 22 |
| COc1ccc(NS(=O)c2cccc(C)c2)cc1 (stereo not drawn) | > 100 | > 100 | > 100 | – | > 100 | > 100 | > 100 | > 100 | 66.7 | > 100 | > 100 | > 100 |
| O=C(Nc1nc(C23CC4CC(CC(C4)C2)C3)cs1)c1cc2cc([N+](=O)[O-])ccc2oc1=O | > 100 | > 100 | > 100 | – | > 100 | > 100 | > 100 | > 100 | > 100 | > 100 | > 100 | 67.9 |
| CC1(C)CC(=O)C(=CN2C(=O)CNC2=S)C(=O)C1 | – | > 100 | > 100 | > 100 | > 100 | > 100 | > 100 | – | > 100 | – | > 100 | > 100 |
| S=C(Nc1ccc2c(c1)Cc1ccccc1-2)Nc1ccc2c(c1)Cc1ccccc1-2 | > 100 | > 100 | > 100 | > 100 | > 100 | > 100 | > 100 | > 100 | – | > 100 | > 100 | > 100 |
| C[n+]1c(-c2ccc(/C=N/Nc3ccnc(N/N=C/c4ccc(-c5cn6ccccc6[n+]5C)cc4)n3)cc2)cn2ccccc21 | > 100 | > 100 | > 100 | – | 45.4 | > 100 | 54.4 | – | 40.1 | 95.8 | > 100 | 93.1 |
| N#Cc1c(C#N)c(-c2ccccc2)n(/N=C\c2ccccc2)c1N | 83.1 | – | > 100 | 41.5 | 81.8 | 65.3 | > 100 | > 100 | 55.1 | – | 72 | 61.3 |
| O=C(O)CCCc1ccc2c(c1)CC1(C2)Cc2ccc(CCCC(=O)O)cc2C1 | > 100 | – | > 100 | > 100 | > 100 | > 100 | > 100 | > 100 | > 100 | – | > 100 | > 100 |
| Cc1ccc([N+](=O)[O-])cc1NC(=O)C(=O)C1CCC2=C(Sc3ccccc3N2)C1=O (stereo not drawn) | > 100 | > 100 | > 100 | > 100 | > 100 | > 100 | > 100 | – | > 100 | > 100 | > 100 | > 100 |
| CC1(C)Oc2ccc3c(=O)c4ccccc4oc3c2C1C(=O)O (stereo not drawn) | > 100 | – | > 100 | > 100 | – | > 100 | – | > 100 | > 100 | – | > 100 | > 100 |
| CC1(C)CC2(C)OC(=N)C1(C#N)C2(C#N)C#N (stereo not drawn) | 13.4 | – | 22.7 | 24.9 | 16.2 | 21.2 | 20.3 | 31.4 | 24.5 | – | 14.9 | 37.7 |
| O=C(/C=C/c1ccccc1)CCc1c(O)c2ccccc2oc1=O | > 100 | > 100 | – | > 100 | > 100 | > 100 | > 100 | > 100 | > 100 | > 100 | > 100 | > 100 |
| O=C(NCc1ccccc1)c1c(O)c2ccccc2[nH]c1=O | > 100 | > 100 | > 100 | – | > 100 | > 100 | > 100 | > 100 | > 100 | > 100 | > 100 | > 100 |
| CCOC(=O)c1cc(-c2ccn(C(C)=O)c2)c(-c2cc(C)co2)[nH]1 | – | > 100 | > 100 | > 100 | > 100 | > 100 | > 100 | > 100 | – | > 100 | > 100 | > 100 |
| COC(=O)C1=C(C)NC2(C)OC(C)(O)C(C(C)=O)C12C(C)=O (stereo not drawn) | > 100 | > 100 | > 100 | > 100 | – | > 100 | > 100 | 50.9 | 57.5 | > 100 | > 100 | 65.1 |
| COC(=O)/C=C\C(C#N)(C#N)N=Cc1ccsc1 | 8.97 | 33.6 | 5.96 | 9.69 | 8.85 | 12.2 | 2.72 | 3.5 | – | 7.43 | 2.73 | > 68 |
| COC(=O)C1[C@H](C(=O)OC)C1(Br)CBr (stereo partly drawn) | > 100 | > 100 | > 100 | > 100 | > 100 | > 100 | > 100 | – | > 100 | > 100 | > 100 | > 100 |
